Measurements as given in US9387261B2, “Immunoconjugates targeting CD138 and uses thereof” (priority 2007, dated 2016).
“Also recorded” adds a separate entry of the source.

Columns and labels:
[1] = higher; cited from earlier work
[2] = tested on: MOLP-8 human multiple myeloma xenografts; assay: MOLP-8 xenograft mouse experiments A, Part I (single bolus i.v. injection); format: in vivo, CB.17 SCID mice; conditions: for effect on tumor growth compared with PBS-treated animals: single i.v. bolus, 250 μg/kg maytansinoid (nBT062 antibody […])
Experimental: In these mice, subcutaneous tumors were established (female CB.17 SCID mice) by inoculation with MOLP-8 cell suspensions. Treatment with a single bolus intravenous injection was conducted when tumor volumes reached an average 113 mm^3. Changes in tumor volume and body weight were monitored twice per week.
Female CB.17 SCID mice, five weeks old, were obtained from Charles River Laboratories.
MOLP-8, a human multiple myeloma cell line, was supplied from ATCC.
Each mouse was inoculated with 1×10^7 MOLP-8 cells subcutaneously into the area under the right shoulder. The total volume was 0.2 ml per mouse, in which the ratio of serum-free medium to matrigel (BD Bioscience, Bedford, Mass.) was 1/1 (v/v). Prior to treatment, the xenograft tumors were monitored daily and were allowed to become established.
Eleven days after tumor cell inoculation, 42 mice were selected based on tumor volumes and body weights. […] The forty-two mice were randomly divided into seven groups (A-G) of six animals each based on tumor volume.
Each of six mice in Group A received 200 μl of PBS as vehicle control.
All agents were intravenously administered as a single bolus injection through a lateral tail vein with a 1 ml syringe fitted with a 27 gauge, ½ inch needle.

MOLP-8 tumor xenografts = assay: Bulky MOLP-8 tumor model, Part II / xenograft mouse experiments B (TGD, log cell kill); format: in vivo, SCID mice; conditions: 450 μg/kg dose; mean time to reach 160 mm^3 minus control
Experimental: In a second set of experiments, MOLP-8 cells (1.5×10^7 cells per mouse), suspended in a 50:50 mixture of serum free media and matrigel were injected subcutaneously in the area under the right shoulder in 100 μl. Tumor volumes reached about 80 mm^3 at day 11 and the mean of the controls was about 750 mm^3 at day 25, post cell inoculation. […] Each mouse in the control group (n=6) received 0.2 ml of sterile PBS administered into the lateral tail vein (i.v.) in a bolus injection. All treatment doses were based on conjugated maytansinoid. […] Mice were randomized into eleven groups (n=6) by tumor volume using the LabCat Program. The tumor volumes ranged from 40.0 to 152.5 mm^3. The mice were dosed based on the individual body weight.
Tumor size was measured twice per week in three dimensions using the LabCat System (Tumor Measurement and Tracking, Innovative Programming Associated, Inc., Princeton, N.J.).
In this set of experiments, eighty-five mice were inoculated with MOLP-8 cells (1.5×10^7 cells/mouse) subcutaneously in the right shoulder. […] Sixty-six SCID mice bearing bulky MOLP-8 tumors with a mean tumor volume of about 80 mm^3 were randomized into eleven treatment groups (n=6).

For `COc1cc2cc(c1Cl)N(C)C(=O)C[C@H](OC(=O)[C@H](C)N(C)C(C)=O)[C@]1(C)O[C@H]1[C@H](C)[C@@H]1C[C@@](O)(NC(=O)O1)[C@H](OC)/C=C/C=C(\C)C2` [maytansine], the “cytotoxicity relative to anti-cancer drugs affecting tubulin polymerization (Vinca alkaloids, taxol)” value [1] is given as 200-1000 fold.

For “B-B4-SPP-DM1: conjugate of the murine parental antibody B-B4 with DM1 via SPP linker”, the “effect on tumor growth compared with PBS-treated animals” value [2] was “marked delay in tumor growth” and the “homogeneity of anti-tumor activity in individual mice” value ([2]; single i.v. dose 250 μg/kg, FIG. 9) was “more heterogeneously; also recorded: high binding variation”.

For nBT062, the “effect on tumor growth compared with PBS-treated animals” value [2] was “did not cause any significant inhibition of tumor growth” and the “effect on tumor growth compared with PBS-treated animals” value ([2]; listed as huBT062) was “no significant impact on tumor growth”.

In the case of “nBT062-DM1: nBT062 conjugate with DM1, linker not stated; TGD of 18 days matches nBT062-SMCC-DM1”, the “TGD (days), tumor growth delay” value (MOLP-8 tumor xenografts) is reported as 18 days.
